± gives the expanded uncertainty stated by the source.
Assay: mn = molality of the nth substance listed, in mol/kg
Conditions: 101 kPa, Liquid; for viscosity: Capillary tube (Ostwald / Ubbelohde) method; for mass density: Vibrating tube method

CCCCCCCCCCCCCCCC[N+](C)(C)C.[Br-] [N,N,N-trimethyl-1-hexadecanaminium bromide] + O
Conditions	mass density, 298.15 K [kg/m3]	mass density, 308.15 K [kg/m3]	mass density, 318.15 K [kg/m3]	viscosity, 298.15 K [mPa·s]	viscosity, 308.15 K [mPa·s]	viscosity, 318.15 K [mPa·s]
m1 = 0.001	997.2 ± 0.5	994.2 ± 0.5	990.4 ± 0.5	0.899 ± 0.009	0.744 ± 0.008	0.617 ± 0.008
m1 = 0.003	997.3 ± 0.5	994.3 ± 0.5	990.5 ± 0.5	0.91 ± 0.009	0.752 ± 0.008	0.622 ± 0.008
m1 = 0.005	997.4 ± 0.5	994.4 ± 0.5	990.6 ± 0.5	0.921 ± 0.009	0.76 ± 0.008	0.635 ± 0.008

— the NIST ThermoML archive (doi:10.1021/je100211s)
